Assay results as given in patent publication US6586460B1, “Heteroarotinoids containing urea or thiourea linker” (The Board of Regents for Oklahoma State University, priority 2001, dated 2003).

Legend:
C-33A = assay: Growth inhibition assay (SRB); type: cell-based; conditions: 10 μM, three-day treatment, Table I
Excerpt: (§1) To illustrate the general and useful biological activity of the heteroarotinoids described in this invention, selected compounds were screened for ability to inhibit the growth of three ovarian cancerous cell lines, namely Caov, SKOV, and OVCAR cell lines, three cervical cell lines (Cervix HPV-Wt p53, Cervix HPV-Mut p53, and Cervix HPV-Mut p53), and one vulvar (Vulvar HPV-Mut p53) cell line as shown in Tables I-III. The cell lines and the technology have been previously described [See Journal of Medicinal Chemistry, 1999, Vol. 42, pages 3602-3614 in an article entitled “Synthesis, Structure-Activity Relationships, and RAR γ-Ligand Interactions of Nitrogen Heteroarotinoids” by A. Dhar, S. Liu, J. Klucik, K. D. Berlin, M. M. Madler, S. Lu, R. T. Ivey, D. Zacheis, C. W. Brown, E. C. Nelson, P. J. Birckbichler, and D. M. Benbrook], but the general technique was slightly modified. Cultures of the cancerous cells were plated in volumes of 150 μL in 96-well microtiter plates at concentrations of 2000-4000 cells/well, depending upon the cell line used. Retinoids were added the next day at 4× the concentrations in 50 μL of media resulting in 1, 2, 3, 4, 5, 7, and 10 μM final concentrations of each retinoid. Control cultures were treated with the same volume of DMSO. After 3 days of treatment, the cell density in each well was determined by fixing the cells in trichloroacetic acid followed by staining the cytoplasmic proteins with sulforhoamine B (SRB). After rinsing, the SRB was solubilized in Tris-HCl, and the optical density of each culture was determined with a MR600 microtiter plate reader. Each experiment was performed in triplicate, and the three values of each treatment were averaged. The average OD of the treated cultures was divided by that of the control cultures treated with solvent alone. To determine the percent growth inhibition, this ratio was subtracted from 1 and multiplied by 100. Tables I, II, and III contain representative examples of the inhibition of growth by the inventive heteroarotinoids of the cancerous cell lines investigated at two independent concentrations (1 and 10 μM). As standards for comparison purposes, trans-retinoic acid (t-RA), 9-cis-retinoic acid (9-c-RA), 13-cis-retinoic acid (13-c-RA), and […] (4-HPR) were added in parallel experiments along with the heteroarotinoids and with dimethyl sulfoxide (DMSO) as the solvent. For convenience, the data in Tables II and III are duplicated and ranked according to tumor type.

CAOV-3 = assay: Growth inhibition assay (SRB); type: cell-based
Excerpt: as §1

HT-3 = assay: Growth inhibition assay (SRB); type: cell-based; conditions: 10 μM, three-day treatment, Table I
Excerpt: as §1

SK-OV-3 = assay: Growth inhibition assay (SRB); type: cell-based
Excerpt: as §1

SW962 = assay: Growth inhibition assay (SRB); type: cell-based; conditions: 10 μM, three-day treatment, Table I
Excerpt: as §1

SiHa = assay: Growth inhibition assay (SRB); type: cell-based; conditions: 10 μM, three-day treatment, Table I
Excerpt: as §1

OVCAR-3 = assay: Growth inhibition assay (SRB); type: cell-based, human
Excerpt: as §1

[1] = system: ovarian carcinoma cell line OVCAR-3; assay: Apoptosis in organotypic culture, TUNNEL assay; type: cell-based, human; conditions: 1 μM, two weeks, organotypic culture, TUNNEL assay
Protocol: In another experiment, the ovarian carcinoma cell line OVCAR-3 was grown in organotypic culture. After one week, the cultures were treated with 1 μM solution of heteroarotinoids 11, 12, and 13, or with the same volume of DMSO (solvent), for two weeks. Both 9-c-RA and 4-HPR were used as controls. At the end of the time, the cultures were fixed in sectioned, and stained with the TUNNEL assay to detect apoptosing cells. An experienced pathologist quantitated the percent of apoptosing cells by light microscopic examination.

[2] = system: SW962 vulvar carcinoma cultures; assay: Apoptosis assay, Annexin-V-Flous/propidium iodide flow cytometry; type: cell-based
Excerpt: Optimal chemotherapeutic agents will selectively kill tumor cells by inducing a natural form of cell death which is called “apoptosis”. Toxic agents kill both normal and tumor cells via a nonspecific process known as “necrosis”. To differentiate between apoptosis and necrosis in heteroarotinoid-treated cultures, a flow cytometric assay was employed. Treated cultures were stained with Annexin-V-Flous and propidium iodide, and the intensities of the stains are quantitated with Flow Cytometry. The Annexin-V-Flous binds to phosphatidyl serine on the exterior of apoptosing cells. This assay is specific for apoptosing cells because phosphatidyl serine is normally located on the inner membrane of the cells, a situation whereby the serine derivative cannot be bound by Annexin. However, during apoptosis, phosphatidyl serine is translocated to the outer membrane. The Flous moiety emits a signal that can be detected and quantitated by Flow Cytometry. In contrast, propidium iodide is taken up by necrotic cells that have lost membrane integrity. In this study, t-RA was used as a control for the non-apoptotic retinoids, and 4-HPR was used as a control for the apoptotic retinoids.

[3] = Liver toxicity (plasma ALT activity, liver sections); type: in vivo; conditions: 10 mg/kg/day p.o.
Excerpt: Toxic compounds can induce livers to release enzymes called serum transaminases, such as alanine aminotransferase (ALT). The assay for ALT is the most universally accepted clinical laboratory marker used to evaluate hepatic toxicity induced by pharmaceuticals [See “Serum Transferase Elevations as Indicators or Hepatic Injury Following the Administration of Drugs”, Reg. Tox. Pharm., volume 27, 1998, pp 119-130, by D. E. Amacher]. At the end of the treatment period, blood was drawn from each animal. Plasma was separated by centrifugation and stored at −70° C. The activity of ALT was determined in aliquots of plasma by standard spectrophotometric enzymatic techniques which were based upon the reduction of pyruvate by lactate dehydrogenase [See “Aged Mice are Resistant to the Hepatotoxic Effects of Endotoxin and Galactosamine” in Exp. Mol. Pathology, volume 59, 1993, pp 27-37]. The method measures the disappearance of NADH from time of incubation at 37° C. The activities have been expressed in μm/Liter/min (Table VI). Two different amounts of plasma were utilized in each assay to assure the measurement of the maximum rate.
There were no statistically significant differences between the ALT activities in the different treatment groups (Table VI, t-test: P>0.05). All numbers were in the normal range (63 to 307 μm/Liter/Min) of ALT values for the species of mouse utilized. All liver sections were assessed by an experienced pathologist in a blinded manner. The degree of necrosis was very mild in all animals.

[4] = system: OVCAR-3 cisplatin-resistant ovarian carcinoma cell line; assay: Cisplatin chemosensitization (MTS assay); type: cell-based, human; conditions: for chemosensitization to cisplatin (percent growth, FIG. 2): 1 μM retinoid 3 days before and 3 days after one hour of cisplatin (40 μM or 1 μg/ml)
Protocol: The compounds of the present invention also find advantage over the standard retinoids, including retinoic acid and 4-HPR as chemosensitization agents. In another study, ovarian carcinoma cultures, including cisplatin-resistant cultures, were trypsinized and plated in microtiter plates at a concentration of 1000 cells per well. A series of natural and synthetic retinoids, including exemplar heteroarotinoids with the novel three atom linker, at a concentration of 5 μM were added to triplicate wells in the microtiter plates twenty-four hours later. The same volume of DMSO used to administer the compounds were added to the control cultures. After three days of treatment, a range of cisplatin concentrations were added to the wells. After one hours of exposure, the media and retinoid drugs were replenished. Cell survival was quantitated using the MTS assay (Promega). […] Thus, the present invention contemplates the process of sensitizing cells to cisplatin therapy and combined cisplatin and radiation therapy using the inventive heteroarotinoids.
In this regard, the cisplatin resistant OVCAR-3 cell line was pre-treated with a concentration of 1 μM of the indicated retinoids for 3 days, and then exposed to cisplatin at the concentration detected in tumors of treated patients (40 μM or 1 μg/ml). […] After one hour of cisplatin exposure, the cisplatin was removed and the cultures were grown in the presence of 1 μM of the indicated retinoids for an additional 3 days. The number of living cells present was then determined using the MTS (3-(4,5-dimethylthiazol-2-yl)-5-(3-carboxymethoxyphenyl)-2H-tetrazolium inner salt) assay (Promega). In the MTS assay, metabolically active cells reduce the MTS compound to an aqueous soluble formazan resulting in an absorbance that can be measured at 490 nm (Promega Technical Bulletin No.169). The optical density at 490 nm (OD490) of the MTS-treated cultures is then determined and used as a measure of the number of living cells in each well. The percent growth is determined by dividing the OD490 of the treated cultures by the OD490 of the untreated control cultures.

[5] = 10 μM, three-day treatment, Table I
[6] = 1 μM, 3 days of treatment, Table II
[7] = 10 μM, 3 days of treatment, Table III

Row | Compound | Percentage of growth inhibition, SKOV−3 (SK-OV-3; [6]) [%] | Percentage of growth inhibition, SKOV−3 (SK-OV-3; [7]) [%] | Percentage of growth inhibition, OVCAR−3 (OVCAR-3; [6]) [%] | Percentage of growth inhibition, OVCAR−3 (OVCAR-3; [7]) [%] | % APOPTOSIS of OVCAR-3 cells [1] [%] | chemosensitization to cisplatin (percent growth, FIG. 2) [4] | Percentage of growth inhibition, CAOV−3 (CAOV-3; [6]) [%] | Percentage of growth inhibition, CAOV−3 (CAOV-3; [7]) [%] | also measured
1 | 9-cis-retinoic acid [9-c-RA, reference compound] | 23.0 | 16.0 | 6.2 | 5.3 | 80 |  |  |  | Percentage growth inhibition, C-33A (Cervix HPV− Mut p53) (C-33A): 44%; Percentage growth inhibition, CAOV-3 (Ovarian HPV− Mut p53) (CAOV-3; [5]): 27%; Percentage growth inhibition, HT-3 (Cervix HPV− Mut p53) (HT-3): 47%; Percentage growth inhibition, SK-OV-3 (Ovarian HPV− Null p53) (SK-OV-3; [5]): 30%; Percentage growth inhibition, SW962 (Vulva HPV− Mut p53) (SW962): 31%; Percentage growth inhibition, SiHa (Cervix HPV+ Wt p53) (SiHa): 24%; Percentage growth inhibition, OVCAR-3 (Ovarian HPV− Mut p53) (OVCAR-3; [5]): 28%
2 | CC1=C(/C=C/C(C)=C/C=C/C(C)=C/C(=O)Nc2ccc(O)cc2)C(C)(C)CCC1 [4-HPR, 4-hydroxyphenylretinamide, reference compound] | 7.2 | 64.9 | 2.7 | 43.1 | 95 | but not 4-HPR are effective |  |  | Percentage of induction of apoptosis in SW962 vulvar carcinoma cultures ([2]; Days 0): 3%; Percentage of induction of apoptosis in SW962 vulvar carcinoma cultures ([2]; Days 1): 1.67%; Percentage of induction of apoptosis in SW962 vulvar carcinoma cultures ([2]; Days 2): 3.6%; Percentage of induction of apoptosis in SW962 vulvar carcinoma cultures ([2]; Days 3): 17.28%; liver toxicity (ALT activities, liver sections assessed by pathologist) ([3]; mice): do not appear to induce significant liver toxicity; ALT ACTIVITY ([3]; plasma of mice at end of treatment period): 149.7 ± 140.9 μm/Liter/Min; chemosensitization to cisplatin (cell survival, MTS) ([4]; 5 μM retinoid, three days, then range of cisplatin concentrations): prevented the growth increase
3 | Cc1cc([N+](=O)[O-])ccc1NC(=S)Nc1ccc2c(c1)C(C)(C)CC(C)(C)S2 [heteroarotinoid 16] | −1.67 | 52.81 | 10.20 | 74.05 |  | effective | 15.33 | 83.22 | 
4 | CCOC(=O)c1ccc(NC(=O)Nc2cccc3c2SC(C)(C)CC3(C)C)cc1 [heteroarotinoid 24] | 1.86 | 7.98 | −2.16 | 26.53 |  | effective | 17.55 | 53.11 | 
5 | COc1cc2c(cc1NC(=S)Nc1ccc([N+](=O)[O-])cc1)C(C)(C)OCC2(C)C [heteroarotinoid 31, [(6-Methoxy-1,1,4,4-tetramethylisochroman-7-yl)amino][(4-nitrophenyl)amino]methane 1-Thione] |  |  | 3.88 |  |  |  |  |  | inhibition at 1 µM (CAOV-3; Homo sapiens, Caov-3, 72 h, 1 μM, 3 days of treatment, Table II, read-out: Percentage of growth inhibition, CAOV−3): 6.88%; inhibition at 10 µM (CAOV-3; Homo sapiens, Caov-3, 72 h, 10 μM, 3 days of treatment, Table III, read-out: Percentage of growth inhibition, CAOV−3): 30.8%; inhibition at 1 µM (SK-OV-3; Homo sapiens, SK-OV-3, 72 h, 1 μM, 3 days of treatment, Table II, read-out: Percentage of growth inhibition, SKOV−3): -1.42%; inhibition at 10 µM (SK-OV-3; Homo sapiens, SK-OV-3, 72 h, 10 μM, 3 days of treatment, Table III, read-out: Percentage of growth inhibition, SKOV−3): 27.4%; inhibition at 1 µM (OVCAR-3; Homo sapiens, OVCAR-3, 72 h, 1 μM, 3 days of treatment, Table II, read-out: Percentage of growth inhibition, OVCAR−3): 3.83%; inhibition at 10 µM (OVCAR-3; Homo sapiens, OVCAR-3, 72 h, 10 μM, 3 days of treatment, Table III, read-out: Percentage of growth inhibition, OVCAR−3): 80.6%; melting point: 178 to 179 °C
